Source: PubChem BioAssay (NCI)
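Assay format: 96-well plates, 48-hour exposure. GI50 is the concentration that inhibits growth by half. TGI denotes the concentration required for complete inhibition of growth.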

Columns and labels:
Assay in all cases: growth of human tumour cells (NCI), 48 h
MDA-MB-435 = test system: MDA-MB-435
786-0 renal = test system: 786-0 renal
NCI-H522 lung = test system: NCI-H522 lung
OVCAR-3 ovarian = test system: OVCAR-3 ovarian
HCT-15 colon = test system: HCT-15 colon
SK-MEL-5 melanoma = test system: SK-MEL-5 melanoma
IGROV1 ovarian = test system: IGROV1 ovarian
PC-3 prostate = test system: PC-3 prostate
UACC-257 melanoma = test system: UACC-257 melanoma
SN12C renal = test system: SN12C renal
COLO 205 colon = test system: COLO 205 colon
SW-620 colon = test system: SW-620 colon
BT-549 breast = test system: BT-549 breast
T-47D breast = test system: T-47D breast
SNB-75 CNS = test system: SNB-75 CNS
HT29 colon = test system: HT29 colon
SF-295 CNS = test system: SF-295 CNS
NCI-H226 lung = test system: NCI-H226 lung
M14 melanoma = test system: M14 melanoma
LOX IMVI melanoma = test system: LOX IMVI melanoma
K-562 leukemia = test system: K-562 leukemia
HS 578T breast = test system: HS 578T breast
ACHN renal = test system: ACHN renal
RPMI-8226 leukemia = test system: RPMI-8226 leukemia
MDA-MB-231 breast = test system: MDA-MB-231 breast
HCT-116 colon = test system: HCT-116 colon
KM12 colon = test system: KM12 colon
HOP-62 NSCLC = test system: HOP-62 NSCLC
SF-539 CNS = test system: SF-539 CNS
CCRF-CEM leukemia = test system: CCRF-CEM leukemia
OVCAR-4 ovarian = test system: OVCAR-4 ovarian
MOLT-4 leukemia = test system: MOLT-4 leukemia
SK-MEL-28 melanoma = test system: SK-MEL-28 melanoma
DU-145 prostate = test system: DU-145 prostate
SNB-19 CNS = test system: SNB-19 CNS
OVCAR-8 ovarian = test system: OVCAR-8 ovarian
NCI/ADR-RES ovarian = test system: NCI/ADR-RES ovarian
HL-60(TB) leukemia = test system: HL-60(TB) leukemia
A498 renal = test system: A498 renal
MCF7 breast = test system: MCF7 breast
OVCAR-5 ovarian = test system: OVCAR-5 ovarian
SF-268 CNS = test system: SF-268 CNS
SK-OV-3 ovarian = test system: SK-OV-3 ovarian
SR leukemia = test system: SR leukemia
UO-31 renal = test system: UO-31 renal
SK-MEL-2 melanoma = test system: SK-MEL-2 melanoma
NCI-H460 lung = test system: NCI-H460 lung
U251 CNS = test system: U251 CNS
A549 NSCLC = test system: A549 NSCLC
NCI-H23 lung = test system: NCI-H23 lung
CAKI-1 renal = test system: CAKI-1 renal
HOP-92 NSCLC = test system: HOP-92 NSCLC
EKVX NSCLC = test system: EKVX NSCLC
UACC-62 melanoma = test system: UACC-62 melanoma
HCC-2998 colon = test system: HCC-2998 colon
RXF 393 renal = test system: RXF 393 renal
TK-10 renal = test system: TK-10 renal
MALME-3M melanoma = test system: MALME-3M melanoma

## COc1ccc(-c2nc(-c3ccccc3)c(-c3ccccc3)n2C2CC2)cc1OC1CCCC1
MDA-MB-435
  GI50: 147 µM
  TGI: > 165 µM
786-0 renal
  GI50: 98.2 µM
  TGI: > 165 µM
NCI-H522 lung
  GI50: 62.1 µM
  TGI: > 165 µM
OVCAR-3 ovarian
  GI50: 102 µM
  TGI: > 165 µM
HCT-15 colon
  GI50: 7.26 µM
  TGI: > 165 µM
SK-MEL-5 melanoma
  GI50: 16.7 µM
  TGI: 125 µM
IGROV1 ovarian
  GI50: 77.8 µM
  TGI: > 165 µM
PC-3 prostate
  GI50: 22.6 µM
  TGI: > 165 µM
UACC-257 melanoma
  GI50: > 165 µM
  TGI: > 165 µM
SN12C renal
  GI50: 128 µM
  TGI: > 165 µM
COLO 205 colon
  GI50: 51.3 µM
  TGI: > 165 µM
SW-620 colon
  GI50: 53.7 µM
  TGI: > 165 µM
BT-549 breast
  GI50: > 165 µM
  TGI: > 165 µM
T-47D breast
  GI50: 51.5 µM
  TGI: > 165 µM
SNB-75 CNS
  GI50: 48.4 µM
  TGI: > 165 µM
HT29 colon
  GI50: 85.1 µM
  TGI: > 165 µM
SF-295 CNS
  GI50: 67.5 µM
  TGI: > 165 µM
NCI-H226 lung
  GI50: 83.7 µM
  TGI: > 165 µM
M14 melanoma
  GI50: 163 µM
  TGI: > 165 µM
LOX IMVI melanoma
  GI50: 15.1 µM
  TGI: > 165 µM
K-562 leukemia
  GI50: 11.5 µM
  TGI: > 165 µM
HS 578T breast
  GI50: 26.3 µM
  TGI: > 165 µM
ACHN renal
  GI50: 58 µM
  TGI: > 165 µM
RPMI-8226 leukemia
  GI50: 48.8 µM
  TGI: > 165 µM
MDA-MB-231 breast
  GI50: > 165 µM
  TGI: > 165 µM
HCT-116 colon
  GI50: 14.1 µM
  TGI: > 165 µM
KM12 colon
  GI50: 50.9 µM
  TGI: > 165 µM
HOP-62 NSCLC
  GI50: > 165 µM
  TGI: > 165 µM
SF-539 CNS
  GI50: 90.9 µM
  TGI: > 165 µM
CCRF-CEM leukemia
  GI50: 33.3 µM
  TGI: > 165 µM
OVCAR-4 ovarian
  GI50: 97.4 µM
  TGI: > 165 µM
MOLT-4 leukemia
  GI50: 45.7 µM
  TGI: > 165 µM
SK-MEL-28 melanoma
  GI50: > 165 µM
  TGI: > 165 µM
DU-145 prostate
  GI50: 94.5 µM
  TGI: > 165 µM
SNB-19 CNS
  GI50: > 165 µM
  TGI: > 165 µM
OVCAR-8 ovarian
  GI50: 66.6 µM
  TGI: > 165 µM
NCI/ADR-RES ovarian
  GI50: 58.6 µM
  TGI: > 165 µM
HL-60(TB) leukemia
  GI50: 28.3 µM
  TGI: 141 µM
A498 renal
  GI50: 9.57 µM
  TGI: > 165 µM
MCF7 breast
  GI50: 67.6 µM
  TGI: > 165 µM
OVCAR-5 ovarian
  GI50: > 165 µM
  TGI: > 165 µM
SF-268 CNS
  GI50: 44.9 µM
  TGI: > 165 µM
SK-OV-3 ovarian
  GI50: > 165 µM
  TGI: > 165 µM
SR leukemia
  GI50: 7.92 µM
  TGI: 59.4 µM
UO-31 renal
  GI50: 64.6 µM
  TGI: > 165 µM
SK-MEL-2 melanoma
  GI50: 105 µM
  TGI: > 165 µM
NCI-H460 lung
  GI50: 11 µM
  TGI: > 165 µM
U251 CNS
  GI50: 30.2 µM
  TGI: > 165 µM
A549 NSCLC
  GI50: 48.7 µM
  TGI: > 165 µM
NCI-H23 lung
  GI50: > 165 µM
  TGI: > 165 µM
CAKI-1 renal
  GI50: 50.2 µM
  TGI: > 165 µM

## C[N+](C)(CCCCCC[N+](C)(C)CCCN1C(=O)c2cc3ccccc3cc2C1=O)CCCN1C(=O)c2ccccc2C1=O
MDA-MB-435
  GI50: > 37.5 µM
  TGI: > 37.5 µM
HOP-92 NSCLC
  GI50: > 37.5 µM
  TGI: > 37.5 µM
786-0 renal
  GI50: > 37.5 µM
  TGI: > 37.5 µM
NCI-H522 lung
  GI50: > 37.5 µM
  TGI: > 37.5 µM
OVCAR-3 ovarian
  GI50: > 37.5 µM
  TGI: > 37.5 µM
HCT-15 colon
  GI50: > 37.5 µM
  TGI: > 37.5 µM
SK-MEL-5 melanoma
  GI50: > 37.5 µM
  TGI: > 37.5 µM
IGROV1 ovarian
  GI50: > 37.5 µM
  TGI: > 37.5 µM
EKVX NSCLC
  GI50: > 37.5 µM
  TGI: > 37.5 µM
UACC-62 melanoma
  GI50: > 37.5 µM
  TGI: > 37.5 µM
PC-3 prostate
  GI50: > 37.5 µM
  TGI: > 37.5 µM
UACC-257 melanoma
  GI50: > 37.5 µM
  TGI: > 37.5 µM
SN12C renal
  GI50: > 37.5 µM
  TGI: > 37.5 µM
COLO 205 colon
  GI50: > 37.5 µM
  TGI: > 37.5 µM
SW-620 colon
  GI50: > 37.5 µM
  TGI: > 37.5 µM
BT-549 breast
  GI50: > 37.5 µM
  TGI: > 37.5 µM
T-47D breast
  GI50: > 37.5 µM
  TGI: > 37.5 µM
HCC-2998 colon
  GI50: > 37.5 µM
  TGI: > 37.5 µM
SNB-75 CNS
  GI50: > 37.5 µM
  TGI: > 37.5 µM
HT29 colon
  GI50: > 37.5 µM
  TGI: > 37.5 µM
SF-295 CNS
  GI50: > 37.5 µM
  TGI: > 37.5 µM
NCI-H226 lung
  GI50: > 37.5 µM
  TGI: > 37.5 µM
M14 melanoma
  GI50: > 37.5 µM
  TGI: > 37.5 µM
LOX IMVI melanoma
  GI50: > 37.5 µM
  TGI: > 37.5 µM
K-562 leukemia
  GI50: > 37.5 µM
  TGI: > 37.5 µM
HS 578T breast
  GI50: > 37.5 µM
  TGI: > 37.5 µM
RXF 393 renal
  GI50: > 37.5 µM
  TGI: > 37.5 µM
ACHN renal
  GI50: > 37.5 µM
  TGI: > 37.5 µM
RPMI-8226 leukemia
  GI50: > 37.5 µM
  TGI: > 37.5 µM
MDA-MB-231 breast
  GI50: > 37.5 µM
  TGI: > 37.5 µM
HCT-116 colon
  GI50: > 37.5 µM
  TGI: > 37.5 µM
KM12 colon
  GI50: > 37.5 µM
  TGI: > 37.5 µM
HOP-62 NSCLC
  GI50: > 37.5 µM
  TGI: > 37.5 µM
SF-539 CNS
  GI50: > 37.5 µM
  TGI: > 37.5 µM
CCRF-CEM leukemia
  GI50: > 37.5 µM
  TGI: > 37.5 µM
OVCAR-4 ovarian
  GI50: > 37.5 µM
  TGI: > 37.5 µM
MOLT-4 leukemia
  GI50: > 37.5 µM
  TGI: > 37.5 µM
TK-10 renal
  GI50: > 37.5 µM
  TGI: > 37.5 µM
SK-MEL-28 melanoma
  GI50: > 37.5 µM
  TGI: > 37.5 µM
DU-145 prostate
  GI50: > 37.5 µM
  TGI: > 37.5 µM
SNB-19 CNS
  GI50: > 37.5 µM
  TGI: > 37.5 µM
OVCAR-8 ovarian
  GI50: > 37.5 µM
  TGI: > 37.5 µM
NCI/ADR-RES ovarian
  GI50: > 37.5 µM
  TGI: > 37.5 µM
HL-60(TB) leukemia
  GI50: > 37.5 µM
  TGI: > 37.5 µM
A498 renal
  GI50: > 37.5 µM
  TGI: > 37.5 µM
MCF7 breast
  GI50: > 37.5 µM
  TGI: > 37.5 µM
OVCAR-5 ovarian
  GI50: > 37.5 µM
  TGI: > 37.5 µM
SF-268 CNS
  GI50: > 37.5 µM
  TGI: > 37.5 µM
SK-OV-3 ovarian
  GI50: > 37.5 µM
  TGI: > 37.5 µM
UO-31 renal
  GI50: > 37.5 µM
  TGI: > 37.5 µM
SK-MEL-2 melanoma
  GI50: > 37.5 µM
  TGI: > 37.5 µM
NCI-H460 lung
  GI50: > 37.5 µM
  TGI: > 37.5 µM
U251 CNS
  GI50: > 37.5 µM
  TGI: > 37.5 µM
A549 NSCLC
  GI50: > 37.5 µM
  TGI: > 37.5 µM
MALME-3M melanoma
  GI50: > 37.5 µM
  TGI: > 37.5 µM
NCI-H23 lung
  GI50: > 37.5 µM
  TGI: > 37.5 µM
CAKI-1 renal
  GI50: > 37.5 µM
  TGI: > 37.5 µM
